Tests used:
[1] = Liquid, Vibrating tube method
[2] = xn = mol fraction of the nth substance listed; conditions: Liquid, Vibrating tube method, x2 = 0

CC1(C)C(=O)[C@]2(C)CC[C@H]1C2 [(-)-fenchone]
mass density [kg/m3], [1]
Conditions	101 kPa	20000 kPa	25000 kPa	30000 kPa	35000 kPa	40000 kPa
283.15 K	953.27	965.6	968.5	971.3	974	976.6
298.15 K	940.67	954	957.1	960	962.9	965.7
313.15 K	928.04	942.3	945.6	948.7	951.8	954.7
328.15 K	915.39	930.8	934.2	937.6	940.9	944

CCO [ethanol]
mass density [kg/m3], [1]
Conditions	101 kPa	20000 kPa	25000 kPa	30000 kPa	35000 kPa	40000 kPa
283.15 K	797.99	813.3	816.8	820.2	823.4	826.6
298.15 K	785.2	801.7	805.4	809	812.5	815.8
313.15 K	772.15	790.1	794.1	797.8	801.5	805
328.15 K	758.71	778.1	782.4	786.4	790.3	794.1

CCO [ethanol] + CC1(C)C(=O)[C@]2(C)CC[C@H]1C2
mass density [kg/m3], [2]
Conditions	101 kPa	20000 kPa	25000 kPa	30000 kPa	35000 kPa	40000 kPa
283.15 K	797.99	813.3	816.8	820.2	823.4	826.6
298.15 K	785.2	801.7	805.4	809	812.5	815.8
313.15 K	772.15	790.1	794.1	797.8	801.5	805
328.15 K	758.71	778.1	782.4	786.4	790.3	794.1
